Test results reported in patent US20150105386A1, “4-(4-PYRIDINYL)-BENZAMIDES AND THEIR USE AS ROCK ACTIVITY MODULATORS” (AbbVie Deutschland GmbH & Co KG, priority 2007, published 2015).
pKi: −log10 of the molar value.

Target: T1, hROCK-2 (Homo sapiens, UniProt O75116)
T1 construct: purchased Upstate
Experiment: ROCK-2 Assay (33P-ATP FlashPlate kinase assay, biotinylated S6 peptide)
Type: biochemical
Conditions: hROCK-2 0.8 nM, 5 μM ATP, 1.5 μM biotinylated S6 peptide, room temperature, 60 min
Experimental: The reaction is stopped by addition of 150 μl of 0.1 M EDTA in Dulbecco's PBS. 170 μl from each well are loaded onto a FlashPlate (PerkinElmer) and incubated at room temperature for 30 min.

T1 sequence (O75116 whole entry): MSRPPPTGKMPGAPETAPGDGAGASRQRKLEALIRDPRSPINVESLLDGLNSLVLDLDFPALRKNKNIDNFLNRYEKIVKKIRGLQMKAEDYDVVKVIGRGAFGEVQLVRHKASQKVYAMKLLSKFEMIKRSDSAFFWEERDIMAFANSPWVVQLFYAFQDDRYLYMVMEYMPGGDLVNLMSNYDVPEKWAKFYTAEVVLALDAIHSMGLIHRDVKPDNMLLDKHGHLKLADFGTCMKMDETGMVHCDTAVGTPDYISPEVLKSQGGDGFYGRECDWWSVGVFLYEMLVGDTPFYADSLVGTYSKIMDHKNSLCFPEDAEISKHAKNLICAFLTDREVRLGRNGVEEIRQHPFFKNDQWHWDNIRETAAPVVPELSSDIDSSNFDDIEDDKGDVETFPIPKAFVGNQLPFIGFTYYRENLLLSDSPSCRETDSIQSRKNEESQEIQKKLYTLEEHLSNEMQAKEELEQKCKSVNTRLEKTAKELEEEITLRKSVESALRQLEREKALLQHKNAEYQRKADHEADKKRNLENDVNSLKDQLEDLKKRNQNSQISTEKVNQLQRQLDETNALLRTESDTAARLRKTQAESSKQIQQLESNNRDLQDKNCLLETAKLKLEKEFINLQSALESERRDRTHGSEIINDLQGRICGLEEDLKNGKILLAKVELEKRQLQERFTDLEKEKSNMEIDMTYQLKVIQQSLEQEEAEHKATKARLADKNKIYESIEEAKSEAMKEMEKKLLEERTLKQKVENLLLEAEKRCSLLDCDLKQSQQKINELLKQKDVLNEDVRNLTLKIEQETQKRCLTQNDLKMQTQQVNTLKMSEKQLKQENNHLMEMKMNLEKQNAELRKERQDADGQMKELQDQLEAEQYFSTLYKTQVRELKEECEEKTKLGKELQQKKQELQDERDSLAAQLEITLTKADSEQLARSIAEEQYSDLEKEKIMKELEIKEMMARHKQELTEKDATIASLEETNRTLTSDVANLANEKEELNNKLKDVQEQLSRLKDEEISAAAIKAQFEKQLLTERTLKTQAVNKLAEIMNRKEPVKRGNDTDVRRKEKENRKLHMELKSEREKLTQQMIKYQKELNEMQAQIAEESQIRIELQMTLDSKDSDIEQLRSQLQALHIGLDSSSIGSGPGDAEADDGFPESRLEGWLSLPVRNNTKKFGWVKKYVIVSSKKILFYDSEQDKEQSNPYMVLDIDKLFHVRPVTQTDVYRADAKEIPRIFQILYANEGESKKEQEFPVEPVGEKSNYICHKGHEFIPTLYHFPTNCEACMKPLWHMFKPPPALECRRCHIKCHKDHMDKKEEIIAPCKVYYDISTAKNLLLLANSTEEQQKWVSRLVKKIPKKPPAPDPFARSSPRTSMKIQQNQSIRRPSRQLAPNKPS

| Structure (SMILES) | pKi |
| --- | --- |
| O=C(N[C@H](CO)Cc1c[nH]c2ccccc12)c1ccc(-c2ccncc2)cc1 [Example 14, N-[(1S)-2-hydroxy-1-(1H-indol-3-ylmethyl)ethyl]-4-pyridin-4-ylbenzamide] | 6.30 to 7.30 |
| O=C(N[C@H](CO)Cc1ccc(O)cc1)c1ccc(-c2ccncc2)cc1 [Example 15, N-[(1S)-2-hydroxy-1-(4-hydroxybenzyl)ethyl]-4-pyridin-4-ylbenzamide] | 6.30 to 7.30 |
| COCC(Cc1ccccc1)NC(=O)c1ccc(-c2ccncc2)cc1 (stereo not shown) [Example 16, N-(1-benzyl-2-methoxyethyl)-4-pyridin-4-ylbenzamide] | 6.30 to 7.30 |
| O=C(N[C@@H](c1ccccc1)[C@H](O)c1ccccc1)c1ccc(-c2ccncc2)cc1 [Example 29, N-[(1S,2R)-2-hydroxy-1,2-diphenylethyl]-4-pyridin-4-ylbenzamide] | 6.30 to 7.30 |
| CN1CCN(CC(NC(=O)c2ccc(-c3ccncc3)cc2)c2ccccc2)CC1 (stereo not shown) [Example 33, N-[2-(4-methylpiperazin-1-yl)-1-phenylethyl]-4-pyridin-4-ylbenzamide] | 6.30 to 7.30 |
| O=C(NC(c1ccccc1)[C@@H](O)c1ccccc1)c1ccc(-c2ccncc2)cc1 (stereo partly drawn) [Example 34, N-[(2S)-2-hydroxy-1,2-diphenylethyl]-4-pyridin-4-ylbenzamide] | 6.30 to 7.30 |
| O=C(NC(CO)c1cccnc1)c1ccc(-c2ccncc2)cc1 (stereo not shown) [Example 39, N-(2-hydroxy-1-pyridin-3-ylethyl)-4-pyridin-4-ylbenzamide] | 6.30 to 7.30 |
| Cc1ccc(C(CO)NC(=O)c2ccc(-c3ccncc3)cc2)c(C)c1 (stereo not shown) [Example 40, N-[1-(2,4-dimethylphenyl)-2-hydroxyethyl]-4-pyridin-4-ylbenzamide] | 6.30 to 7.30 |
| COc1ccc(C(CN)NC(=O)c2ccc(-c3ccncc3)cc2)cc1 (stereo not shown) [Example 44, N-[2-amino-1-(4-methoxyphenyl)ethyl]-4-pyridin-4-ylbenzamide] | 6.30 to 7.30 |
| O=C(NC(Cc1ccccc1)c1ccccc1)c1ccc(-c2ccncc2)cc1 (stereo not shown) [Example 48, N-(1,2-diphenylethyl)-4-pyridin-4-ylbenzamide] | 6.30 to 7.30 |
| O=C(NC(c1ccccc1)c1ccc(Cl)cc1)c1ccc(-c2ccncc2)cc1 (stereo not shown) [Example 49, N-[(4-chlorophenyl)(phenyl)methyl]-4-pyridin-4-ylbenzamide] | 6.30 to 7.30 |
| CC(NC(=O)c1ccc(-c2ccncc2)cc1)c1ccco1 (stereo not shown) [Example 53] | 6.30 to 7.30 |
| Cc1ccc(C(C)NC(=O)c2ccc(-c3ccncc3)cc2)o1 (stereo not shown) [Example 71] | 6.30 to 7.30 |
| CC(NC(=O)c1ccc(-c2ccncc2)cc1)c1ccccn1 (stereo not shown) [Example 76, 4-pyridin-4-yl-N-(1-pyridin-2-ylethyl)benzamide] | 6.30 to 7.30 |
| CC(NC(=O)c1ccc(-c2ccncc2)cc1)c1cccnc1 (stereo not shown) [Example 79, 4-pyridin-4-yl-N-(1-pyridin-3-ylethyl)benzamide] | 6.30 to 7.30 |
| C[C@@H](NC(=O)c1ccc(-c2ccncc2)cc1)c1ccccn1 [Example 80, 4-pyridin-4-yl-N-[(1R)-1-pyridin-2-ylethyl]benzamide] | 6.30 to 7.30 |
| Cc1ccc([C@@H](C)NC(=O)c2ccc(-c3ccncc3)cc2)cc1 [Example 82, N-[(1R)-1-(4-methylphenyl)ethyl]-4-pyridin-4-ylbenzamide] | 6.30 to 7.30 |
| C[C@@H](NC(=O)c1ccc(-c2ccncc2)cc1)c1ccccc1C(F)(F)F [Example 86, 4-pyridin-4-yl-N-{(1R)-1-[2-(trifluoromethyl)phenyl]ethyl}benzamide] | 6.30 to 7.30 |
| C[C@@H](NC(=O)c1ccc(-c2ccncc2)cc1)c1cc(C(F)(F)F)cc(C(F)(F)F)c1 [Example 89, N-{(1R)-1-[3,5-bis(trifluoromethyl)phenyl]ethyl}-4-pyridin-4-ylbenzamide] | 6.30 to 7.30 |

Continued, values first:

| pKi | Structure (SMILES) |
| --- | --- |
| > 7.30 | O=C(N[C@H](CCO)c1ccccc1)c1ccc(-c2ccncc2)cc1 [Example 2, N-[(1R)-3-hydroxy-1-phenylpropyl]-4-pyridin-4-ylbenzamide] |
| 6.30 to 7.30 | CC(C)(C)OC(=O)NCC(NC(=O)c1ccc(-c2ccncc2)cc1)c1ccccc1 (stereo not shown) [Example 3, tert-Butyl-{2-phenyl-2-[(4-pyridin-4-ylbenzoyl)amino]ethyl}carbamate] |
| > 7.30 | O=C(N[C@H](CO)Cc1ccccc1)c1ccc(-c2ccncc2)cc1 [Example 7, N-[(1S)-1-benzyl-2-hydroxyethyl]-4-pyridin-4-ylbenzamide] |
| > 7.30 | O=C(N[C@@H](Cc1ccccc1)CN1CCCC1)c1ccc(-c2ccncc2)cc1 [Example 28, N-[(1S)-1-benzyl-2-pyrrolidin-1-ylethyl]-4-pyridin-4-ylbenzamide] |
| > 7.30 | CN(C)CC(NC(=O)c1ccc(-c2ccncc2)cc1)c1ccccc1 (stereo not shown) [Example 30, N-[2-(dimethylamino)-1-phenylethyl]-4-pyridin-4-ylbenzamide] |
| > 7.30 | O=C(NC(CN1CCCC1)c1ccccc1)c1ccc(-c2ccncc2)cc1 (stereo not shown) [Example 31, N-(1-phenyl-2-pyrrolidin-1-ylethyl)-4-pyridin-4-ylbenzamide] |
| > 7.30 | O=C(NC(CN1CCOCC1)c1ccccc1)c1ccc(-c2ccncc2)cc1 (stereo not shown) [Example 32, N-(2-morpholin-4-yl-1-phenylethyl)-4-pyridin-4-ylbenzamide] |
| > 7.30 | O=C(NC(Cn1ccnc1)c1ccccc1)c1ccc(-c2ccncc2)cc1 (stereo not shown) [Example 35, N-[2-(1H-imidazol-1-yl)-1-phenylethyl]-4-pyridin-4-ylbenzamide] |
| > 7.30 | O=C(NC(CN1CCCCC1)c1ccccc1)c1ccc(-c2ccncc2)cc1 (stereo not shown) [Example 36, N-(1-phenyl-2-piperidin-1-ylethyl)-4-pyridin-4-ylbenzamide] |
| > 7.30 | Cc1ccc(C(CO)NC(=O)c2ccc(-c3ccncc3)cc2)cc1C (stereo not shown) [Example 41, N-[1-(3,4-dimethylphenyl)-2-hydroxyethyl]-4-pyridin-4-ylbenzamide] |
| > 7.30 | Cc1ccc(C(CN)NC(=O)c2ccc(-c3ccncc3)cc2)cc1 (stereo not shown) [Example 46, N-[2-amino-1-(4-methylphenyl)ethyl]-4-pyridin-4-ylbenzamide] |
| > 7.30 | C[C@@H](NC(=O)c1ccc(-c2ccncc2)cc1)c1cccc2ccccc12 [Example 47, N-[(1R)-1-(1-naphthyl)ethyl]-4-pyridin-4-ylbenzamide] |
| > 7.30 | CC(NC(=O)c1ccc(-c2ccncc2)cc1)c1cccs1 (stereo not shown) [Example 72, 4-pyridin-4-yl-N—O-(2-thienyl)ethypenzamide] |
| > 7.30 | CCC(NC(=O)c1ccc(-c2ccncc2)cc1)c1ccccc1 (stereo not shown) [Example 75, N-(1-phenylpropyl)-4-pyridin-4-ylbenzamide] |
| > 7.30 | C[C@@H](NC(=O)c1ccc(-c2ccncc2)cc1)c1ccc(F)cc1 [Example 85, N-[(1R)-1-(4-fluorophenyl)ethyl]-4-pyridin-4-ylbenzamide] |
| > 7.30 | C[C@@H](NC(=O)c1ccc(-c2ccncc2)cc1)c1cccc(C(F)(F)F)c1 [Example 87, 4-pyridin-4-yl-N-{(1R)-1-[3-(trifluoromethyl)phenyl]ethyl}benzamide] |
| > 7.30 | C[C@@H](NC(=O)c1ccc(-c2ccncc2)cc1)c1ccccc1F [Example 88, N-[(1R)-1-(2-fluorophenyl)ethyl]-4-pyridin-4-ylbenzamide] |
| > 7.30 | C[C@@H](NC(=O)c1ccc(-c2ccncc2)cc1)c1ccc(Cl)cc1 [Example 90, N-[(1R)-1-(4-chlorophenyl)ethyl]-4-pyridin-4-ylbenzamide] |
